Results as given in US20190375708A1 (VenatoRx Pharmaceuticals, Inc., priority 2018, published 2019).

Assays:
[1] = test system: HBV replication in HepAD38 cells; assay: Anti-HBV replication assay in HepAD38 cells (QPCR of extracellular HBV DNA); format: cell-based, HBV (genotype D, serotype ayw); settings: Hepatitis B virus, 168 h, 7 days incubation, extracellular HBV DNA by QPCR, read-out: Anti-HBV EC50
In short: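 Steps: seed HepAD38 overnight without tetracycline; refresh medium and add 1 log10 serial dilutions ([…]); incubate 7 days at 37 °C; quantify supernatant HBV DNA by QPCR; derive EC50 from a 4-parameter dose-response fit.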

[2] = In vitro cytotoxicity assay (MTT cell viability) in HepG2 cells; format: cell-based, human; settings: human
In short: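 Parental HepG2 cells in EMEM + 10% FBS were exposed to compounds (8 half-log dilutions, 30 μM to 1.0 nM) for 7 days at 37 °C, 5% CO2. MTT was then added for 3-4 h, formazan dissolved in DMSO and absorbance read at 492 nm; CC50 came from 4-parameter fits against vehicle controls.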

SMILES	EC50 [1] [nM]	CC50 at 7 days [2] [nM]
Cc1cc(NC(=O)c2c(C)c(C(=O)C(=O)NC3(c4noc(C(F)F)n4)CCC3)n(C)c2C)ccc1F [Example 153, 5-(2-((1-(5-(difluoromethyl)-1,2,4-oxadiazol-3-yl)cyclobutyl)amino)-2-oxoacetyl)-N-(4-fluoro-3-methylphenyl)-1,2,4-trimethyl-1H-pyrrole-3-carboxamide]	< 50	5000 to 30000
CC(=O)N1CCC(C)(NC(=O)C(=O)c2c(C)c(C(=O)Nc3ccc(F)c(C)c3)c(C)n2C)CC1 [Example 612, 5-(2-((1-acetyl-4-methylpiperidin-4-yl)amino)-2-oxoacetyl)-N-(4-fluoro-3-methylphenyl)-1,2,4-trimethyl-1H-pyrrole-3-carboxamide]	< 50	> 30000
Cc1cc(NC(=O)c2c(C)c(C(=O)C(=O)N[C@H]3CC[C@@](O)(C(F)(F)F)CC3)n(C)c2C)ccc1F [Example 207, N-(4-fluoro-3-methylphenyl)-5-(2-(((1r,4r)-4-hydroxy-4-(trifluoromethyl)cyclohexyl)amino)-2-oxoacetyl)-1,2,4-trimethyl-1H-pyrrole-3-carboxamide]	< 50	> 30000
Cc1cc(NC(=O)c2cc(C(=O)C(=O)NC(C)(C)C)n3c2CN(C(=O)OC(C)(C)C)CC3)ccc1F [Example 587, tert-butyl 6-(2-(tert-butylamino)-2-oxoacetyl)-8-((4-fluoro-3-methylphenyl)carbamoyl)-3,4-dihydropyrrolo[1,2-a]pyrazine-2(1H)-carboxylate]	50 to 499	> 30000
Cc1cc(NC(=O)c2c(C)c(C(=O)C(=O)NC3(c4noc(C(F)F)n4)CCC3)n(C)c2C)cnc1F [Example 159, 5-(2-((1-(5-(difluoromethyl)-1,2,4-oxadiazol-3-yl)cyclobutyl)amino)-2-oxoacetyl)-N-(6-fluoro-5-methylpyridin-3-yl)-1,2,4-trimethyl-1H-pyrrole-3-carboxamide]	< 50	> 30000
Cc1c(C(=O)Nc2ncc(C(F)(F)F)s2)c2n(c1C(=O)C(=O)NC1(CO)CCC1)CCCC2 [Example 749, 3-(2-((1-(hydroxymethyl)cyclobutyl)amino)-2-oxoacetyl)-2-methyl-N-(5-(trifluoromethyl)thiazol-2-yl)-5,6,7,8-tetrahydroindolizine-1-carboxamide]	50 to 499	> 30000
Cc1cc(NC(=O)c2cc(C(=O)C(=O)N[C@@H](CO)[C@H](C)O)n3c2CCCC3)ccc1F [Example 417, 3-(2-(((2S,3S)-1,3-dihydroxybutan-2-yl)amino)-2-oxoacetyl)-N-(4-fluoro-3-methylphenyl)-5,6,7,8-tetrahydroindolizine-1-carboxamide]	50 to 499	> 30000
Cc1cc(NC(=O)c2c(Cl)c(C(=O)C(=O)NCC(C)(C)CO)n3c2CCC3)ccc1F [Example 549, 6-chloro-N-(4-fluoro-3-methylphenyl)-5-(2-((3-hydroxy-2,2-dimethylpropyl)amino)-2-oxoacetyl)-2,3-dihydro-1H-pyrrolizine-7-carboxamide]	500 to 1000	> 30000
Cc1cc(NC(=O)c2cc(C(=O)C(=O)NC(C)(C)CO)n3c2CCCC3)ccc1F [Example 411, N-(4-fluoro-3-methylphenyl)-3-(2-((1-hydroxy-2-methylpropan-2-yl)amino)-2-oxoacetyl)-5,6,7,8-tetrahydroindolixzine-1-carboxamide]	50 to 499	> 30000
COCC(C)(C)NC(=O)C(=O)c1c(C)c(C(=O)Nc2ccc(F)c(C)c2)c(C)n1C [Example 169, N-(4-fluoro-3-methylphenyl)-5-(2-((1-methoxy-2-methylpropan-2-yl)amino)-2-oxoacetyl)-1,2,4-trimethyl-1H-pyrrole-3-carboxamide]	< 50	> 30000
Cc1cc(NC(=O)c2c(C)c(C(=O)C(=O)N[C@@H]3C[C@H](O)[C@H]4OC(C)(C)O[C@H]43)n(C)c2C)ccc1F [Example 695, N-(4-fluoro-3-methylphenyl)-5-(2-(((3aS,4R,6S,6aR)-6-hydroxy-2,2-dimethyltetrahydro-4H-cyclopenta[d][1,3]dioxol-4-yl)amino)-2-oxoacetyl)-1,2,4-trimethyl-1H-pyrrole-3-carboxamide]	< 50	> 30000
Cc1c(C(=O)Nc2ccnc(F)c2)c(C)n(C)c1C(=O)C(=O)N[C@H](C)C(F)(F)F [Example 170, (R)—N-(2-fluoropyridin-4-yl)-1,2,4-trimethyl-5-(2-oxo-2-((1,1,1-trifluoropropan-2-yl)amino)acetyl)-1H-pyrrole-3-carboxamide]	< 50	> 30000
Cc1noc([C@H](C)NC(=O)C(=O)c2c(Cl)c(C(=O)Nc3ccc(F)c(C)c3)c3n2CCC3)n1 [Example 545, (S)-6-chloro-N-(4-fluoro-3-methylphenyl)-5-(2-((1-(3-methyl-1,2,4-oxadiazol-5-yl)ethyl)amino)-2-oxoacetyl)-2,3-dihydro-1H-pyrrolizine-7-carboxamide]	< 50	5000 to 30000
O=C(NC1(CO)CC1)C(=O)c1c(Cl)c(C(=O)Nc2ccc(F)c(F)c2)c2n1CCCC2 [Example 502, 2-chloro-N-(3,4-difluorophenyl)-3-(2-((1-(hydroxymethyl)cyclopropyl)amino)-2-oxoacetyl)-5,6,7,8-tetrahydroindolizine-1-carboxamide]	50 to 499	> 30000
O=C(NC1(CO)CC(F)(F)C1)C(=O)c1c(Cl)c(C(=O)Nc2ccnc(F)c2)c2n1CCCC2 [Example 511, 2-chloro-3-(2-((3,3-difluoro-1-(hydroxymethyl)cyclobutyl)amino)-2-oxoacetyl)-N-(2-fluoropyridin-4-yl)-5,6,7,8-tetrahydroindolizine-1-carboxamide]	50 to 499	> 30000
CC[C@@H](CO)NC(=O)C(=O)c1c(C)c(C(=O)Nc2ccc(F)c(C)c2)c(C)n1C [Example 139, (S)-N-(4-fluoro-3-methylphenyl)-5-(2-((1-hydroxybutan-2-yl)amino)-2-oxoacetyl)-1,2,4-trimethyl-1H-pyrrole-3-carboxamide]	< 50	> 30000
Cc1c(C(=O)Nc2cccc(C(F)F)c2)c(C)n(C)c1C(=O)C(=O)N[C@H]1CC[C@@H](O)CC1 [Example 690, N-(3-(difluoromethyl)phenyl)-5-(2-(((1s,4s)-4-hydroxycylcohexyl)amino)-2-oxoacetyl)-1,2,4-trimethyl-1H-pyrrole-3-carboxamide]	< 50	> 30000
Cc1noc([C@@H](C)NC(=O)C(=O)c2c(Cl)c(C(=O)Nc3cnc(F)c(C)c3)c3n2CCCC3)n1 [Example 522, (R)-2-chloro-N-(6-fluoro-5-methylpyridin-3-yl)-3-(2-((1-(3-methyl-1,2,4-oxadiazol-5-yl)ethyl)amino)-2-oxoacetyl)-5,6,7,8-tetrahydroindolizine-1-carboxamide]	> 1000	> 30000
Cc1c(C(=O)Nc2ccc(F)c(F)c2)c(C)n(C)c1C(=O)C(=O)Nc1ccccn1 [Example 294, N-(3,4-difluorophenyl)-1,2,4-trimethyl-5-(2-oxo-2-(pyridin-2-ylamino)acetyl)-1H-pyrrole-3-carboxamide]	500 to 1000	> 30000
CCNC(=O)N1CCC(C)(NC(=O)C(=O)c2c(C)c(C(=O)Nc3ccc(F)c(C)c3)c(C)n2C)CC1 [Example 614, N-ethyl-4-(2-(4-((4-fluoro-3-methylphenyl)carbamoyl)-1,3,5-trimethyl-1H-pyrrol-2-yl)-2-oxoacetamido)-4-methylpiperidine-1-carboxamide]	< 50	> 30000
Cc1cc(NC(=O)c2c(C)c(C(=O)C(=O)N[C@@H](C(N)=O)[C@H](C)O)n(C)c2C)ccc1F [Example 44, 5-(2-(((2R,3S)-1-amino-3-hydroxy-1-oxobutan-2-yl)amino)-2-oxoacetyl)-N-(4-fluoro-3-methylphenyl)-1,2,4-trimethyl-1H-pyrrole-3-carboxamide]	< 50	> 30000
Cc1cc(Cl)cc(NC(=O)c2c(C)c(C(=O)C(=O)N[C@@H]3CCC[C@@H](O)C3)n(C)c2C)c1 [Example 688, N-(3-chloro-5-methylphenyl)-5-(2-(((1R,3R)-3-hydroxycyclohexyl)amino)-2-oxoacetyl)-1,2,4-trimethyl-1H-pyrrole-3-carboxamide]	< 50	> 30000
O=C(NC1(CO)CC(F)(F)C1)C(=O)c1c(Cl)c(C(=O)Nc2ccc(F)c(F)c2)c2n1CCC2 [Example 581, 6-chloro-5-(2-((3,3-difluoro-1-(hydroxymethyl)cyclobutyl)amino)-2-oxoacetyl)-N-(3,4-difluorophenyl)-2,3-dihydro-1H-pyrrolizine-7-carboxamide]	< 50	5000 to 30000
CC(C)(CO)CNC(=O)C(=O)c1c(Cl)c(C(=O)Nc2ccc(F)c(F)c2)c2n1CCC2 [Example 559, 6-chloro-N-(3,4-difluorophenyl)-5-(2-((3-hydroxy-2,2-dimethylpropyl)amino)-2-oxoacetyl)-2,3-dihydro-1H-pyrrolizine-7-carboxamide]	50 to 499	> 30000
Cc1[nH]c(C(=O)C(=O)NC(C)(C)C)c(C)c1C(=O)Nc1ccc(F)c(Cl)c1 [Example 3, 5-(2-(tert-butylamino)-2-oxoacetyl)-N-(3-chloro-4-fluorophenyl)-2,4-dimethyl-1H-pyrrole-3-carboxamide]	< 50	5000 to 30000
Cc1cc(NC(=O)c2c(C)c(C(=O)C(=O)Nc3cccnc3)n3c2CCCC3)ccc1F [Example 739, N-(4-fluoro-3-methylphenyl)-2-methyl-3-(2-oxo-2-(pyridin-3-ylamino)acetyl)-5,6,7,8-tetrahydroindolizine-1-carboxamide]	50 to 499	> 30000
